# Active and inactive are the calls of the source. No cut-off for these calls is given here.
# Tests used:
# [1] = Down-regulation of HBBP1 gene expression in healthy human erythroblasts after 7 days relative to control; type: functional
# [2] = Down-regulation of LRP11 gene expression in healthy human erythroblasts after 7 days relative to control; type: functional
# [3] = Upregulation of VSIG4 gene expression in erythroblasts from myelodysplastic syndrome del(5q) patient after 7 days relative to control; type: functional; conditions: Homo sapiens
# [4] = Increase in activin A gene expression in CD34- mononuclear cells from del(5q) myelodysplastic syndrome patient by RT-PCR after 7 days relative to control
# [5] = Down-regulation of ALAS2 gene expression in healthy human erythroblasts after 7 days relative to control; type: functional
# [6] = Upregulation of ANGPT2 gene expression in healthy human erythroblasts after 7 days relative to control; type: functional
# [7] = Down-regulation of GYPB gene expression in healthy human erythroblasts after 7 days relative to control; type: functional
# [8] = Upregulation of RTN1 gene expression in erythroblasts from myelodysplastic syndrome del(5q) patient after 7 days relative to control; type: functional; conditions: Homo sapiens
# [9] = Upregulation of PPIC gene expression in erythroblasts from myelodysplastic syndrome del(5q) patient after 7 days relative to control; type: functional; conditions: Homo sapiens
# [10] = Upregulation of INHBA gene expression in healthy human erythroblasts after 7 days relative to control; type: functional
# [11] = Upregulation of INHBA gene expression in erythroblasts from myelodysplastic syndrome del(5q) patient after 7 days relative to control; type: functional; conditions: Homo sapiens
# [12] = Down-regulation of CXADR gene expression in healthy human erythroblasts after 7 days relative to control; type: functional
# [13] = Upregulation of RTN1 gene expression in healthy human erythroblasts after 7 days relative to control; type: functional
# [14] = Upregulation of TPBG gene expression in healthy human erythroblasts after 7 days relative to control; type: functional
# [15] = Down-regulation of TUBB2 gene expression in erythroblasts from myelodysplastic syndrome del(5q) patient after 7 days relative to control; type: functional; conditions: Homo sapiens
# [16] = Upregulation of DSC2 gene expression in healthy human erythroblasts after 7 days relative to control; type: functional
# [17] = Upregulation of MAOA gene expression in healthy human erythroblasts after 7 days relative to control; type: functional
# [18] = Down-regulation of HBA1 gene expression in healthy human erythroblasts after 7 days relative to control; type: functional
# [19] = Down-regulation of HBB gene expression in healthy human erythroblasts after 7 days relative to control; type: functional
# [20] = Decrease in myeloid differentiation of CD34+ progenitor cells from myelodysplastic syndrome del(5q) patient assessed as CD33 expression after 14 days; type: functional; conditions: Homo sapiens
# [21] = Upregulation of DEFA1 gene expression in erythroblasts from myelodysplastic syndrome del(5q) patient after 7 days relative to control; type: functional; conditions: Homo sapiens
# [22] = Upregulation of PRG3 gene expression in erythroblasts from myelodysplastic syndrome del(5q) patient after 7 days relative to control; type: functional; conditions: Homo sapiens
# [23] = Down-regulation of HBBP1 gene expression in erythroblasts from myelodysplastic syndrome del(5q) patient after 7 days relative to control; type: functional; conditions: Homo sapiens
# [24] = Upregulation of TPBG gene expression in erythroblasts from myelodysplastic syndrome del(5q) patient after 7 days relative to control; type: functional; conditions: Homo sapiens
# [25] = Increase in activin A gene expression in CD34- mononuclear cells from del(5q) myelodysplastic syndrome patient by RT-PCR after 2 days relative to control
# [26] = Down-regulation of KLF1 gene expression in erythroblasts from myelodysplastic syndrome del(5q) patient after 7 days relative to control; type: functional; conditions: Homo sapiens
# [27] = Down-regulation of SPTA1 gene expression in erythroblasts from myelodysplastic syndrome del(5q) patient after 7 days relative to control; type: functional; conditions: Homo sapiens
# [28] = Increase in SPARC gene expression in erythroid progenitor cells from non-del(5q) myelodysplastic syndrome patient by RT-PCR after 7 days relative to control; type: functional, Homo sapiens
# [29] = Upregulation of DSC2 gene expression in erythroblasts from myelodysplastic syndrome del(5q) patient after 7 days relative to control; type: functional; conditions: Homo sapiens
# [30] = Upregulation of CYP4F3 gene expression in healthy human erythroblasts after 7 days relative to control; type: functional
# [31] = Down-regulation of HBA1 gene expression in erythroblasts from myelodysplastic syndrome del(5q) patient after 7 days relative to control; type: functional; conditions: Homo sapiens
# [32] = Upregulation of PPIC gene expression in healthy human erythroblasts after 7 days relative to control; type: functional
# [33] = Down-regulation of AMMECR1 gene expression in healthy human erythroblasts after 7 days relative to control; type: functional
# [34] = Upregulation of CHI3L1 gene expression in erythroblasts from myelodysplastic syndrome del(5q) patient after 7 days relative to control; type: functional; conditions: Homo sapiens
# [35] = Down-regulation of KLF1 gene expression in healthy human erythroblasts after 7 days relative to control; type: functional
# [36] = Down-regulation of GYPE gene expression in healthy human erythroblasts after 7 days relative to control; type: functional
# [37] = Down-regulation of LRP11 gene expression in erythroblasts from myelodysplastic syndrome del(5q) patient after 7 days relative to control; type: functional; conditions: Homo sapiens
# [38] = Down-regulation of TUBB2 gene expression in healthy human erythroblasts after 7 days relative to control; type: functional
# [39] = Down-regulation of HBB gene expression in erythroblasts from myelodysplastic syndrome del(5q) patient after 7 days relative to control; type: functional; conditions: Homo sapiens
# [40] = species on record: Homo sapiens; assay: Growth inhibition of CD34+ progenitor cells from non-del(5q) myelodysplastic syndrome patient after 14 days; type: functional
# [41] = Down-regulation of AMMECR1 gene expression in erythroblasts from myelodysplastic syndrome del(5q) patient after 7 days relative to control; type: functional; conditions: Homo sapiens
# [42] = Upregulation of VSIG4 gene expression in healthy human erythroblasts after 7 days relative to control; type: functional
# [43] = Down-regulation of SPTA1 gene expression in healthy human erythroblasts after 7 days relative to control; type: functional
# [44] = Upregulation of ANGPT2 gene expression in erythroblasts from myelodysplastic syndrome del(5q) patient after 7 days relative to control; type: functional; conditions: Homo sapiens
# [45] = Down-regulation of ALAS2 gene expression in erythroblasts from myelodysplastic syndrome del(5q) patient after 7 days relative to control; type: functional; conditions: Homo sapiens
# [46] = Upregulation of CHI3L1 gene expression in healthy human erythroblasts after 7 days relative to control; type: functional
# [47] = Upregulation of SPARC gene expression in erythroblasts from myelodysplastic syndrome del(5q) patient after 7 days relative to control; type: functional; conditions: Homo sapiens
# [48] = Upregulation of SPARC gene expression in healthy human erythroblasts after 7 days relative to control; type: functional
# [49] = species on record: Homo sapiens; assay: Inhibition of cell proliferation of CD34+ progenitor cells from myelodysplastic syndrome del(5q) patient after 14 days; type: functional
# [50] = Down-regulation of GYPA gene expression in erythroblasts from myelodysplastic syndrome del(5q) patient after 7 days relative to control; type: functional; conditions: Homo sapiens
# [51] = Growth inhibition of CD34- mononuclear cells from myelodysplastic syndrome del(5q-) patient by FISH after 7 days; type: functional, Homo sapiens
# [52] = Upregulation of CXCL1 gene expression in erythroblasts from myelodysplastic syndrome del(5q) patient after 7 days relative to control; type: functional; conditions: Homo sapiens
# [53] = Down-regulation of THRB gene expression in healthy human erythroblasts after 7 days relative to control; type: functional
# [54] = Down-regulation of THRB gene expression in erythroblasts from myelodysplastic syndrome del(5q) patient after 7 days relative to control; type: functional; conditions: Homo sapiens
# [55] = Upregulation of CYP4F3 gene expression in erythroblasts from myelodysplastic syndrome del(5q) patient after 7 days relative to control; type: functional; conditions: Homo sapiens
# [56] = Upregulation of SEC14L5 gene expression in erythroblasts from myelodysplastic syndrome del(5q) patient after 7 days relative to control; type: functional; conditions: Homo sapiens
# [57] = Down-regulation of HBG2 gene expression in erythroblasts from myelodysplastic syndrome del(5q) patient after 7 days relative to control; type: functional; conditions: Homo sapiens
# [58] = Increase in activin A gene expression in erythroid progenitor cells from non-del(5q) myelodysplastic syndrome patient by RT-PCR after 7 days relative to control; type: functional, Homo sapiens
# [59] = Upregulation of PRG3 gene expression in healthy human erythroblasts after 7 days relative to control; type: functional
# [60] = Decrease in erythroid differentiation of CD34+ progenitor cells from myelodysplastic syndrome del(5q) patient assessed as glycophorin A expression after 14 days; type: functional; conditions: Homo sapiens
# [61] = Increase in SPARC gene expression in CD34- mononuclear cells from del(5q) myelodysplastic syndrome patient by RT-PCR after 2 days relative to control
# [62] = Down-regulation of HBA2 gene expression in erythroblasts from myelodysplastic syndrome del(5q) patient after 7 days relative to control; type: functional; conditions: Homo sapiens
# [63] = Upregulation of MAOA gene expression in erythroblasts from myelodysplastic syndrome del(5q) patient after 7 days relative to control; type: functional; conditions: Homo sapiens
# [64] = Down-regulation of GYPB gene expression in erythroblasts from myelodysplastic syndrome del(5q) patient after 7 days relative to control; type: functional; conditions: Homo sapiens
# [65] = Upregulation of SEC14L5 gene expression in healthy human erythroblasts after 7 days relative to control; type: functional
# [66] = species on record: Homo sapiens; assay: Inhibition of cell proliferation of human bone marrow mononuclear cells assessed as [3H]thymidine incorporation upto 500 uM after 4 days; type: functional
# [67] = Down-regulation of GYPE gene expression in erythroblasts from myelodysplastic syndrome del(5q) patient after 7 days relative to control; type: functional; conditions: Homo sapiens
# [68] = Down-regulation of HBA2 gene expression in healthy human erythroblasts after 7 days relative to control; type: functional
# [69] = Upregulation of DEFA1 gene expression in healthy human erythroblasts after 7 days relative to control; type: functional
# [70] = Upregulation of CXCL1 gene expression in healthy human erythroblasts after 7 days relative to control; type: functional
# [71] = Decrease in erythroid differentiation of CD34+ progenitor cells from myelodysplastic syndrome del(5q) patient assessed as CD36 expression after 14 days; type: functional; conditions: Homo sapiens
# [72] = Increase in SPARC gene expression in CD34- mononuclear cells from del(5q) myelodysplastic syndrome patient by RT-PCR after 7 days relative to control
# [73] = Down-regulation of HBG2 gene expression in healthy human erythroblasts after 7 days relative to control; type: functional
# [74] = Down-regulation of CXADR gene expression in erythroblasts from myelodysplastic syndrome del(5q) patient after 7 days relative to control; type: functional; conditions: Homo sapiens
# [75] = Down-regulation of GYPA gene expression in healthy human erythroblasts after 7 days relative to control; type: functional
smiles,measurement,setting,value
Nc1cccc2c1CN(C1CCC(=O)NC1=O)C2=O (stereo not given) [LENALIDOMIDE],Fold change,[1],2.8
same,Fold change,[2],4.8
same,Fold change,[3],9.5
same,Fold change,[4],2.6
same,Fold change,[5],7.6
same,Fold change,[6],1.9
same,Fold change,[7],2.9
same,Fold change,[8],3.5
same,Fold change,[9],5.2
same,Fold change,[10],2.5
same,Fold change,[11],4.9
same,Fold change,[12],5.9
same,Fold change,[13],5.4
same,Fold change,[14],5.4
same,Fold change,[15],8.2
same,Fold change,[16],3.6
same,Fold change,[17],2.1
same,Fold change,[18],11.1
same,Fold change,[19],3.4
same,Activity,[20],Active
same,Fold change,[21],8.9
same,Fold change,[22],2.9
same,Fold change,[23],4.9
same,Fold change,[24],4.1
same,Fold change,[25],2.5
same,Fold change,[26],3.7
same,Fold change,[27],4.5
same,Fold change,[28],9.3
same,Fold change,[29],3
same,Fold change,[30],3.5
same,Fold change,[31],8.5
same,Fold change,[32],10.9
same,Fold change,[33],-3.2
same,Fold change,[34],6.1
same,Fold change,[35],3.4
same,Fold change,[36],2.2
same,Fold change,[37],2.4
same,Fold change,[38],13.9
same,Fold change,[39],7.7
same,Activity,[40],Active
same,Fold change,[41],2.9
same,Fold change,[42],9.5
same,Fold change,[43],4.8
same,Fold change,[44],3.3
same,Fold change,[45],3.3
same,Fold change,[46],10.3
same,Fold change,[47],4.1
same,Fold change,[48],4.8
same,Activity,[49],Active
same,Fold change,[50],3.7
same,growth inhibition (GI),[51],65%
same,Fold change,[52],4.1
same,Fold change,[53],2
same,Fold change,[54],2.8
same,Fold change,[55],3.1
same,Fold change,[56],2.8
same,Fold change,[57],-4.4
same,Fold change,[58],12.6
same,Fold change,[59],1.7
same,Activity,[60],Active
same,Fold change,[61],8.1
same,Fold change,[62],11
same,Fold change,[63],3.9
same,Fold change,[64],3.6
same,Fold change,[65],3.6
same,Activity,[66],inactive
same,Fold change,[67],3
same,Fold change,[68],9.7
same,Fold change,[69],16.3
same,Fold change,[70],2.9
same,Activity,[71],Active
same,Fold change,[72],5.8
same,Fold change,[73],-1.4
same,Fold change,[74],3.6
same,Fold change,[75],9.1

# — ChEMBL document CHEMBL1145521, “Lenalidomide inhibits the malignant clone and up-regulates the SPARC gene mapping to the commonly deleted region in 5q- syndrome patients” (2007)
